PMC6104605, “Discovery of new chromen-4-one derivatives as telomerase inhibitors through regulating expression of dyskerin” (Journal of Enzyme Inhibition and Medicinal Chemistry, 2018)
Like-named read-outs stand apart in the source and are kept apart here.

Key:
human glioma cell U87 = test: MTT anticancer assay, U87; type: cell-based; settings: 48 h exposure, mean ± SD, dash = footnote d 'None'
Protocol: (§1) The MTT was purchased from Sigma. Cell Cycle Analysis Kit and Apoptosis Analysis Kit were purchased from Bestbio (China). Mitochondrial membrane potential assay kit with JC-1 was purchased from Beyotime (China). All the materials were used as received without further purification unless noted specifically. The cell culture was maintained on DMEM medium (Hyclone, US) supplemented with 10% fetal bovine serum (Sijiqing, China), 100 U/mL penicillin and 100 µg/mL streptomycin in 25-cm^2 culture flasks at 37 °C humidified atmosphere with 5% CO2. Drugs were dissolved in DMSO and filtered through 0.22-µm pore-size filter units before addition to cell line appropriate media. When tumor cells were grown to log phase, diluting to 5 × 10^4 cells mL^−1 with the complete medium, 100 µL of the obtained cell suspension was added to each well of 96-well culture plates. The subsequent incubation was performed at 37 °C, 5% CO2 atmosphere for 48 h before subjecting to anti-proliferation assessment. After 48-h exposure period, 20 µL of PBS containing 5 mg·mL^−1 of MTT was added to each well. After 4 h, the medium was replaced by 150 µL DMSO to dissolve the purple formazan crystals produced. The absorbance at 492 nm of each well was measured on an ELISA plate reader. The data represented the mean of three experiments in triplicate and were expressed as means ± SD. The IC50 value was defined as the concentration at which 50% of the cells could survive. The following human tumor cell lines were used in the assay: human gastric cancer cells SGC-7901, human liver cancer cell SMMC-7721 and HepG2, human cervical cancer cell Hela and human glioma cell U87.

[1] = tested on: human liver cancer cell SMMC-7721; test: MTT anticancer assay, SMMC-7721; type: cell-based; settings: 48 h exposure, mean ± SD
Protocol: as §1

[2] = tested on: human liver cancer cell HepG2; test: MTT anticancer assay, HepG2; type: cell-based; settings: 48 h exposure, mean ± SD, dash = footnote d 'None'
Protocol: as §1

[3] = tested on: human gastric cancer cells SGC-7901; test: MTT anticancer assay, SGC-7901; type: cell-based; settings: for IC50: Homo sapiens, SGC-7901, MTT, 48 h exposure, mean ± SD
Protocol: as §1, with “The absorbance at 492 nm of each well was measured on an ELISA plate reader.” left out, “SD.” for “SD. The IC50 value was defined as the concentration at which 50% of the cells could survive. The following human tumor cell lines were used in the assay: human gastric cancer cells SGC-7901, human liver cancer cell SMMC-7721 and HepG2, human cervical cancer cell Hela and human glioma cell U87.”

[4] = tested on: human cervical cancer cell Hela; test: MTT anticancer assay, Hela; type: cell-based; settings: read-out: IC50 Hela
Protocol: as §1, with “The absorbance at 492 nm of each well was measured on an ELISA plate reader.” left out, “SD.” for “SD. The IC50 value was defined as the concentration at which 50% of the cells could survive. The following human tumor cell lines were used in the assay: human gastric cancer cells SGC-7901, human liver cancer cell SMMC-7721 and HepG2, human cervical cancer cell Hela and human glioma cell U87.”

[5] = Octanol water partition coefficient, shake flask; type: physicochemical; settings: octanol/PBS (pH 7.4), pH 7.4, shake flask, octanol/PBS pH 7.4, 37 °C, read-out: Log p (octanole water partition coefficient)
Protocol: Octanole water partition coefficients was measured by the method of shake flask with slight modification. The aqueous phase was replaced by PBS (pH 7.4). First, the phase of octanol and the aqueous were saturated with each other. Then, the mixture containing title compounds was shaken at 37 °C. After 24 h, the mixture was centrifuged at 4000 rpm for 30 min, followed by the measured with ultraviolet spectrophotometer. At last, logP values were calculated.

[6] = tested on: human normal gastric mucosa cell (GES-1); test: Proliferative inhibition of human normal cell (MTT); type: cell-based
Source text: In order to determine the selective cell toxicity of selected compounds. We subsequently conducted a proliferative inhibition assay with human normal gastric mucosa cell (GES-1).

telomerase = target: T1, telomerase (Homo sapiens, UniProt O14746); test: Telomerase activity assay (TRAP-PCR-ELISA); type: biochemical; settings: SGC-7901 cells extracts, 24-h treatment, mean ± SD
T1 construct: endogenous in cells; host or cells: SGC-7901
T1 sequence (O14746 whole entry): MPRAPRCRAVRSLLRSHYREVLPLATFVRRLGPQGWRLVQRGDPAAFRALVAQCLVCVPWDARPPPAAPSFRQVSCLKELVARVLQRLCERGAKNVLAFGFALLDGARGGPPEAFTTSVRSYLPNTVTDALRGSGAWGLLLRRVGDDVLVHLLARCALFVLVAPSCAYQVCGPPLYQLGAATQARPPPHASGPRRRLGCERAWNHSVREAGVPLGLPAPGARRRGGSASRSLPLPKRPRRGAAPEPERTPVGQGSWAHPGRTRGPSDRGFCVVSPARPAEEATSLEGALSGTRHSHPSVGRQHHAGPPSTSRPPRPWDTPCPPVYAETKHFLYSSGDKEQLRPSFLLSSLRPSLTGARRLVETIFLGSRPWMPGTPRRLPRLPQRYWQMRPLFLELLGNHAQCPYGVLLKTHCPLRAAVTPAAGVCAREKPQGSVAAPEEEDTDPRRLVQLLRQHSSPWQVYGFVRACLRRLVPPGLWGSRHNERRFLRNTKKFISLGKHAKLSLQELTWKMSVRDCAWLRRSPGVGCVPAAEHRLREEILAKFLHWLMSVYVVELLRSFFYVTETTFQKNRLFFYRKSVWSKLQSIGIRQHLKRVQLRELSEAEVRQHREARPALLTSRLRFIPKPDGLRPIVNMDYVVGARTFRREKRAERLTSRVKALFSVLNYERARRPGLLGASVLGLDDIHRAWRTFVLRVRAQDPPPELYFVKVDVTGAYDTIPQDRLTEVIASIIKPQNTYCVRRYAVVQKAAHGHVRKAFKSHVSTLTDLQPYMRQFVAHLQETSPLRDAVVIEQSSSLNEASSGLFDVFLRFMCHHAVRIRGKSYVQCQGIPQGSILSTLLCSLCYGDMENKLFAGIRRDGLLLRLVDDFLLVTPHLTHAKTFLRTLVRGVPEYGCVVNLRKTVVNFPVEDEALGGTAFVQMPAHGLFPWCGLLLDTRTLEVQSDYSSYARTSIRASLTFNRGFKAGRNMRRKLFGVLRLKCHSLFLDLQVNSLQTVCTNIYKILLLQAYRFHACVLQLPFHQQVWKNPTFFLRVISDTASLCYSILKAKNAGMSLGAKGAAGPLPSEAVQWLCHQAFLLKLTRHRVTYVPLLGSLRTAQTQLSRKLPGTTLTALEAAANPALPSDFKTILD
T1 sequence (O60832 whole entry partner): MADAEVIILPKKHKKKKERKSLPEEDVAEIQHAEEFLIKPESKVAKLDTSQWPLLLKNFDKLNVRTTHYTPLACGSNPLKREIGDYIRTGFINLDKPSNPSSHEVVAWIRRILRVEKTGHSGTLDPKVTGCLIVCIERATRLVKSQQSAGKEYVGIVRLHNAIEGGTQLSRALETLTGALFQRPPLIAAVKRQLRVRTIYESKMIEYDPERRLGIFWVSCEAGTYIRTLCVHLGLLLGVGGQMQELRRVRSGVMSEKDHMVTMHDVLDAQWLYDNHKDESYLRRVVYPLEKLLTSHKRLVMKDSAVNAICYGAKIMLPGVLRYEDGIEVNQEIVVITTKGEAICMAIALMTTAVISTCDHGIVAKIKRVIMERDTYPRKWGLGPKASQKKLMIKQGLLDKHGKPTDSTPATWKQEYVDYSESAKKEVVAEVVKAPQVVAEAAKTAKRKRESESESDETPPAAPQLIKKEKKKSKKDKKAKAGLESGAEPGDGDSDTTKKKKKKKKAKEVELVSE
T1 sequence (Q9NX24 whole entry partner): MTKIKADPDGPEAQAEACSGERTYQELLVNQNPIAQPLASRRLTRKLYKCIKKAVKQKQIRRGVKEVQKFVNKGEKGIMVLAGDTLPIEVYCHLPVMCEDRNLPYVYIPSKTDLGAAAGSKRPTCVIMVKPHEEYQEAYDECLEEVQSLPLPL
T1 sequence (Q9NPE3 whole entry partner): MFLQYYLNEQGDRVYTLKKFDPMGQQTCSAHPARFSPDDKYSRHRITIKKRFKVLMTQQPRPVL
T1 sequence (Q9NY12 whole entry partner): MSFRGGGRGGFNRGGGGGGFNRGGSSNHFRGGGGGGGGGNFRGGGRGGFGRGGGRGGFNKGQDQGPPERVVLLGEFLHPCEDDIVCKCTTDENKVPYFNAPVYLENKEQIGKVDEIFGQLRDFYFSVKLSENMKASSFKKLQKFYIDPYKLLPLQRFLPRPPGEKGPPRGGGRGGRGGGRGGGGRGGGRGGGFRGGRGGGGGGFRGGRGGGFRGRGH
Protocol: Inhibit of telomerase activity was tested using the TRAP-PCR-ELISA assay. In detail, the SGC-7901 cells were firstly maintained in DMEM medium (GIBCO, New York) supplemented with 10% fetal bovineserum (GIBCO, NewYork), streptomycin (0.1 mg/mL) and penicillin (100 IU/mL) at 37 °C in a humidified atmosphere containing 5% CO2. After trypsinisation, 5 × 10^4 cultured cells in logarithmic growth were seeded into T25 flasks (Corning, New York) and cultured to allow to adherence. The cells were then incubated with Staurosporine (Santa Cruz, Santa Cruz) and the drugs with a series of concentration as 60, 20, 6.67, 2.22, 0.74, 0.25 and 0.082 l g/mL, respectively. After 24-h treatment, the cells were harvested by cell scraper orderly following by washed once with PBS. The cells were lysed in 150 µL RIPA cell lysis buffer (Santa Cruz, Santa Cruz) and incubated on ice for 30 min. The cellular supernatants were obtained via centrifugation at 12,000 g for 20 min at 4 °C and stored at −80 °C. The TRAP-PCR-ELISA assay was performed using a telomerase detection kit (Roche, Basel, Switzerland) according to the manufacturer’s protocol. In brief, 2 µL of cell extracts were mixed with 48 µL TRAP reaction mixtures. PCR was then initiated at 94 °C, 120 s for predenaturation and performed using 35 cycles each consisting of 94 °C for 30 s, 50 °C for 30 s, 72 °C for 90 s. Then 20 µL of PCR products were hybridised to a digoxigenin (DIG)-labeled telomeric repeat specific detection probe. And the PCR products were immobilised via the biotin-labeled primer to a streptavidin-coated microtiter plate subsequently. The immobilised DNA fragment were detected with a peroxidase-conjugated anti-DIG antibody and visualised following addition of the stop regent. The microtitre plate was assessed on TECAN Infinite M200 microplate reader (Mannedorf, Switzerland) at a wavelength of 490 nm, and the final value were presented as mean ± SD.

[7] = GES1, MTT, human normal gastric mucosa cell, read-out: GES-1 IC50

| Structure (SMILES) | IC50 (human glioma cell U87) | IC50 [1] | IC50 [2] | IC50 [3] | IC50 ([4]; MTT, 48 h exposure, mean ± SD) | logP at 24 h [5] | activity against SGC-7901 cells (in words) [3] | IC50 [6, 7] | IC50 ([4]; 48 h) | IC50 (telomerase) | IC50 ([6]; Homo sapiens, GES1, read-out: GES-1 IC50) |
| --- | --- | --- | --- | --- | --- | --- | --- | --- | --- | --- | --- |
| COc1cc(OC)c2c(=O)c(OCCCCN3CCN(C(=O)c4c(F)cccc4F)CC3)c(-c3cc(OC)c(OC)c(OC)c3)oc2c1 [Compound 5b] | > 60 µM | 17 ± 0.99 µM | 23.4 ± 1.23 µM | 10.5 ± 1.08 µM | 11.3 ± 0.85 µM |  |  |  |  |  |  |
| COc1cc(OC)c2c(=O)c(OCCCCN3CCN(C(=O)c4cc(Cl)ccc4[N+](=O)[O-])CC3)c(-c3cc(OC)c(OC)c(OC)c3)oc2c1 [Compound 5l] | 16.2 ± 1.45 µM | 5.2 ± 0.87 µM | 29.1 ± 1.75 µM | 5.81 ± 1.01 µM | 3.8 ± 0.31 µM | 4.82 | good activity |  |  |  |  |
| COc1cc(OC)c2c(=O)c(OCCCCN3CCN(C(=O)c4ccc(C(F)(F)F)cc4)CC3)c(-c3cc(OC)c(OC)c(OC)c3)oc2c1 [Compound 5f] | 18 ± 0.66 µM | 24.2 ± 1.44 µM | 37.4 ± 1.69 µM | 6.97 ± 0.85 µM | 14.4 ± 0.8 µM | 3.35 | good activity | 2980 ± 550 µM |  |  |  |
| COc1cc(OC)c2c(=O)c(OCCCCN3CCN(C(=O)c4cccc(F)c4)CC3)c(-c3cc(OC)c(OC)c(OC)c3)oc2c1 [Compound 5d] | > 60 µM | 32 ± 1.53 µM | 35.5 ± 1.65 µM | 18.5 ± 0.89 µM | 31.4 ± 1.73 µM |  |  |  |  |  |  |
| COc1cc(OC)c2c(=O)c(OCCCCN3CCN(C(=O)c4ccc([N+](=O)[O-])cc4)CC3)c(-c3cc(OC)c(OC)c(OC)c3)oc2c1 [Compound 5g] | 21.6 ± 0.9 µM | 23.2 ± 1.83 µM | 40.5 ± 1.95 µM | 10.5 ± 1.01 µM | 17 ± 1.51 µM |  |  |  |  |  |  |
| COc1cc(OC)c2c(=O)c(OCCCCN3CCN(C(=O)c4ccccc4)CC3)c(-c3cc(OC)c(OC)c(OC)c3)oc2c1 [Compound 5j] | 20.3 ± 1.25 µM | 7.29 ± 0.82 µM | > 60 µM | 7.56 ± 1.01 µM | 8.3 ± 0.3 µM | 3.01 | good activity |  |  |  |  |
| COc1cccc2c1C(=O)c1c(O)c3c(c(O)c1C2=O)C[C@@](O)(C(=O)CO)C[C@@H]3O[C@H]1C[C@H](N)[C@H](O)[C@H](C)O1 [ADM, doxorubicin, reference compound] | 2.24 ± 0.12 µM | 0.81 ± 0.06 µM | 2.87 ± 0.21 µM | 0.98 ± 0.27 µM |  |  |  |  | 0.21 ± 0.03 µM |  |  |
| COc1cc(OC)c2c(=O)c(OCCCCN3CCN(C(=O)c4ccccc4[N+](=O)[O-])CC3)c(-c3cc(OC)c(OC)c(OC)c3)oc2c1 [Compound 5e] | > 60 µM | 31.3 ± 1.63 µM | > 60 µM | 13.2 ± 0.88 µM | 25.1 ± 1.5 µM |  |  | 10000 ± 1220 µM |  | 13.3 ± 1.25 µM |  |
| COc1cc(OC)c2c(=O)c(OCCCCN3CCN(C(=O)c4cc([N+](=O)[O-])cc([N+](=O)[O-])c4)CC3)c(-c3cc(OC)c(OC)c(OC)c3)oc2c1 [Compound 5k] | 8.14 ± 0.22 µM | 4.01 ± 0.38 µM | 21.2 ± 1.53 µM | 5.12 ± 0.5 µM | 2.94 ± 0.25 µM |  | good activity |  |  | 1.44 ± 0.28 µM | 2550 ± 380 µM |
| COc1cc(OC)c2c(=O)c(OCCCCN3CCN(C(=O)c4ccc(Cl)cc4)CC3)c(-c3cc(OC)c(OC)c(OC)c3)oc2c1 [Compound 5h] | 25.6 ± 1.4 µM | 14.1 ± 1.27 µM | 35.3 ± 1.97 µM | 9.22 ± 1 µM | 22.4 ± 0.87 µM |  |  |  |  |  |  |
| COc1cc(OC)c2c(=O)c(OCCCCN3CCN(C(=O)c4c(F)cccc4Cl)CC3)c(-c3cc(OC)c(OC)c(OC)c3)oc2c1 [Compound 5c] | 25.4 ± 1.55 µM | 15.9 ± 1.01 µM | 28 ± 1.84 µM | 9.31 ± 1.05 µM | 9.77 ± 0.62 µM |  |  |  |  |  |  |
| COc1cc(OC)c2c(=O)c(OCCCCN3CCN(C(=O)c4ccc(F)cc4F)CC3)c(-c3cc(OC)c(OC)c(OC)c3)oc2c1 [Compound 5a] | 16.6 ± 1.95 µM | 28 ± 0.98 µM | 33.4 ± 1.56 µM | 16.6 ± 1.32 µM | 25.5 ± 1.02 µM |  |  | 4180 ± 600 µM |  | 11.3 ± 0.99 µM |  |
